From patent publication US4994473A, “Pyridyl containing insecticides” (ICI Americas Inc., priority 1988, dated 1991)

test system: Musca domestica; test: Housefly contact test, mortality after 48 hours; format: in vivo, Housefly Musca domestica; conditions: μg of the test compound per 25 female flies
Procedure: (§1) The compounds in Table I above were tested for insecticidal activity using the following testing procedures. LC50 values, based on the results of these tests and calculated according to dosage-mortality curves, are expressed in Table II.
The test compound was diluted in acetone and aliquots pipetted onto the bottom of aluminum dishes. To ensure even spreading of the chemical on the bottom of the dishes, 1 ml of acetone containing 0.01% peanut oil was also added to each dish. After all solvents had evaporated, the dishes were placed in circular cardboard cages containing 25 female houseflies, 1-2 days old. The cages were covered on the bottom with cellophane and on the top with tulle netting, and each contained a sugar-water saturated cotton plug for maintenance of the flies. Mortality was recorded after 48 hours. Test levels ranged from 100 μg/25 female houseflies downward. The LC-50 value is expressed below in Table II under the heading "HF", in terms of μg of the test compound per 25 female flies.

Row | Compound | LC50 HF [µg]
1 | CC(C)C(=Nc1cncc(C(F)(F)F)c1)OCc1cccc(Oc2ccc(F)cc2)c1 [Compound 35] | 23
2 | CC(C)C(=Nc1ccc(Cl)nc1)NCc1cccc(Oc2ccccc2)c1 [Compound 23] | > 100
3 | CC(C)C(=Nc1cncc(Br)c1)OCc1cccc(Oc2ccccc2)c1 [Compound 13] | 7
4 | CC(C)C(=Nc1cnc2ccccc2c1)OCc1cccc(Oc2ccccc2)c1 [Compound 17] | 36
5 | CC(C)C(=Nc1ccc2ncccc2c1)OCc1cccc(Oc2ccccc2)c1 [Compound 16] | 59
6 | CC(C)C(=Nc1cc(C(F)(F)F)ccn1)OCc1cccc(Oc2ccc(F)cc2)c1 [Compound 36] | > 100
7 | Cc1nc2cc(N=C(OCc3cccc(Oc4ccccc4)c3)C(C)C)ccc2o1 [Compound 24] | > 100
8 | CC(C)C(=Nc1cc(C(F)(F)F)ccn1)OCc1cccc(Oc2ccccc2)c1 [Compound 34] | > 100
9 | CC(C)C(=Nc1ccc(Cl)nc1)OCc1cccc(Oc2ccc(F)cc2)c1 [Compound 22] | 9
10 | CC(C)(Cl)C(=Nc1ccc(Br)nc1)OCc1cccc(Oc2ccccc2)c1 [Compound 12] | 12
11 | CC(C)C(=Nc1ccc2ncsc2c1)OCc1cccc(Oc2ccccc2)c1 [Compound 20] | 6
12 | CC(C)C(=Nc1ccc2ncoc2c1)OCc1cccc(Oc2ccccc2)c1 [Compound 18] | 8

test system: Aphis fabae; test: Black bean aphid spray test on nasturtium plants, mortality after 48 hours; format: in vivo, Black Bean Aphid Aphis fabae (Scop.); conditions: mixed ages, percent of test compound in sprayed solution
Procedure: as §1
Black Bean Aphid Aphis fabae (Scop.)
Nasturtium plants (Tropaeolum sp.) approximately 5 cm tall, were transplanted into sandy loam soil in small cups and infested with 25-50 black bean aphids of mixed ages. Twenty-four hours later they were sprayed to the point of runoff with 50--50 acetone-water solutions of the test compound. Treated plants were held in the greenhouse and mortality was recorded after 48 hours. Test concentrations ranged from 0.05% downward. The LC-50 value is expressed below in Table II under the heading "BA" in terms of percent of the test compound in the sprayed solution.

Row | Compound | LC50 BA [%]
13 | CC(C)C(=Nc1cncc(Br)c1)OCc1cccc(Oc2ccccc2)c1 [Compound 13] | > 0.05
14 | CC(C)(Cl)C(=Nc1ccc(Br)nc1)OCc1cccc(Oc2ccccc2)c1 [Compound 12] | 0.05

test system: Tetranychus urticae; test: Two-spotted mite acaricidal test on pinto bean plants; format: in vivo, two-spotted mite Tetranychus urticae (Koch); conditions: adults, percent concentration in solution, 5-7 days
From the text: Acaricidal Evaluation Test
The two-spotted mite (2SM) [Tetranychus urticae (Koch)]was employed in tests for miticides. The test procedure was as follows:
Pinto bean plants (Phaseolus sp.) approximately 10 cm tall, were transplanted into sandy loam soil in small cups and thoroughly infested with two-spotted mites of mixed ages and sexes. Twenty-four hours later the infested plants were inverted and dipped for 2-3 seconds in 50--50 acetone-water solutions of the test compound. Treated plants were held in the greenhouse, and 5-7 days later mortality was determined for both adult mites and the nymphs hatching from eggs which were on the plants at the time of treatment. Test concentrations ranged from 0.05% downward. The LC-50 value is expressed below in Table II under the headings "2SM-A" (i.e., adults) and "2SM-E" (i.e. eggs) in terms of percent concentration of the test compound in the solution.

Row | Compound | LC50 2-SM A [%]
15 | CC(C)C(=Nc1cncc(C(F)(F)F)c1)OCc1cccc(Oc2ccc(F)cc2)c1 [Compound 35] | > 0.05
16 | CC(C)C(=Nc1ccc(Cl)nc1)NCc1cccc(Oc2ccccc2)c1 [Compound 23] | > 0.05
17 | CC(C)C(=Nc1cnc2ccccc2c1)OCc1cccc(Oc2ccccc2)c1 [Compound 17] | > 0.05
18 | CC(C)C(=Nc1ccc2ncccc2c1)OCc1cccc(Oc2ccccc2)c1 [Compound 16] | > 0.05
19 | CC(C)C(=Nc1cc(C(F)(F)F)ccn1)OCc1cccc(Oc2ccc(F)cc2)c1 [Compound 36] | > 0.05
20 | Cc1nc2cc(N=C(OCc3cccc(Oc4ccccc4)c3)C(C)C)ccc2o1 [Compound 24] | > 0.05
21 | CC(C)C(=Nc1cc(C(F)(F)F)ccn1)OCc1cccc(Oc2ccccc2)c1 [Compound 34] | > 0.05
22 | CC(C)C(=Nc1ccc(Cl)nc1)OCc1cccc(Oc2ccc(F)cc2)c1 [Compound 22] | > 0.05
23 | CC(C)(Cl)C(=Nc1ccc(Br)nc1)OCc1cccc(Oc2ccccc2)c1 [Compound 12] | > 0.05
24 | CC(C)C(=Nc1ccc2ncoc2c1)OCc1cccc(Oc2ccccc2)c1 [Compound 18] | > 0.05

same assay, conditions: eggs, percent concentration in solution, 5-7 days

Row | Compound | LC50 2-SM E [%]
25 | CC(C)C(=Nc1cncc(C(F)(F)F)c1)OCc1cccc(Oc2ccc(F)cc2)c1 [Compound 35] | > 0.05
26 | CC(C)C(=Nc1ccc(Cl)nc1)NCc1cccc(Oc2ccccc2)c1 [Compound 23] | > 0.05
27 | CC(C)C(=Nc1cnc2ccccc2c1)OCc1cccc(Oc2ccccc2)c1 [Compound 17] | > 0.05
28 | CC(C)C(=Nc1ccc2ncccc2c1)OCc1cccc(Oc2ccccc2)c1 [Compound 16] | > 0.05
29 | CC(C)C(=Nc1cc(C(F)(F)F)ccn1)OCc1cccc(Oc2ccc(F)cc2)c1 [Compound 36] | > 0.05
30 | Cc1nc2cc(N=C(OCc3cccc(Oc4ccccc4)c3)C(C)C)ccc2o1 [Compound 24] | > 0.05
31 | CC(C)C(=Nc1cc(C(F)(F)F)ccn1)OCc1cccc(Oc2ccccc2)c1 [Compound 34] | > 0.05
32 | CC(C)C(=Nc1ccc(Cl)nc1)OCc1cccc(Oc2ccc(F)cc2)c1 [Compound 22] | > 0.05
33 | CC(C)(Cl)C(=Nc1ccc(Br)nc1)OCc1cccc(Oc2ccccc2)c1 [Compound 12] | > 0.05
34 | CC(C)C(=Nc1ccc2ncoc2c1)OCc1cccc(Oc2ccccc2)c1 [Compound 18] | > 0.05

test system: Heliothis virescens; test: Tobacco budworm egg dip test; format: in vivo, Tobacco Budworm Heliothis virescens (Fabricius); conditions: 2-day old eggs (TBW-E), percent of test compound in solution
Procedure: as §1
Tobacco Budworm Heliothis virescens (Fabricius)
Eggs: Paper towel patches of 2-day old eggs of the tobacco budworm were dipped in acetone solutions of the test compound and placed in petri dishes containing a portion of larval rearing medium. Treated eggs were maintained at 78° F. and mortality was recorded after all control eggs had hatched and the young larvae were feeding on the media. Test concentrations ranged from 0.1% downward. The LC-50 value is expressed below in Table II under the heading "TBW-E" in terms of percent of the test compound in the solution.

Row | Compound | LC50 TBW [%]
35 | CC(C)C(=Nc1cncc(C(F)(F)F)c1)OCc1cccc(Oc2ccc(F)cc2)c1 [Compound 35] | 0.1
36 | CC(C)C(=Nc1ccc(Cl)nc1)NCc1cccc(Oc2ccccc2)c1 [Compound 23] | > 0.1
37 | CC(C)C(=Nc1cncc(Br)c1)OCc1cccc(Oc2ccccc2)c1 [Compound 13] | > 0.1
38 | CC(C)C(=Nc1cnc2ccccc2c1)OCc1cccc(Oc2ccccc2)c1 [Compound 17] | > 0.1
39 | CC(C)C(=Nc1ccc2ncccc2c1)OCc1cccc(Oc2ccccc2)c1 [Compound 16] | > 0.1
40 | CC(C)C(=Nc1cc(C(F)(F)F)ccn1)OCc1cccc(Oc2ccc(F)cc2)c1 [Compound 36] | > 0.1
41 | Cc1nc2cc(N=C(OCc3cccc(Oc4ccccc4)c3)C(C)C)ccc2o1 [Compound 24] | > 0.1
42 | CC(C)C(=Nc1cc(C(F)(F)F)ccn1)OCc1cccc(Oc2ccccc2)c1 [Compound 34] | > 0.1
43 | CC(C)C(=Nc1ccc(Cl)nc1)OCc1cccc(Oc2ccc(F)cc2)c1 [Compound 22] | 0.05
44 | CC(C)(Cl)C(=Nc1ccc(Br)nc1)OCc1cccc(Oc2ccccc2)c1 [Compound 12] | > 0.1
45 | CC(C)C(=Nc1ccc2ncoc2c1)OCc1cccc(Oc2ccccc2)c1 [Compound 18] | > 0.1

test system: Trichoplusia ni; test: Cabbage looper larvae leaf-dip test; format: in vivo, Cabbage Looper Trichoplusia ni (Hubner); conditions: second instar larvae, percent of test compound in solution, 3-5 days
Procedure: as §1
Cabbage Looper Trichoplusia ni (Hubner)
The test compound was diluted in a 50--50 acetone-water solution Cotyledons of hyzini squash (Calabacita abobrinha), approximately 1×1.5 inches, were immersed in the test solutions for 2-3 seconds and placed on a wire screen to dry. The dried leaves were p1aced in petri dishes containing a moistened piece of filter paper and infested with 5 secondinstar cabbage looper larvae. The dishes were placed in a high humidity chamber. Mortality of the larvae was recorded 3-5 days later. Test concentrations ranged from 0.1% downward. The LC-50 value is expressed below in Table II under the heading "CL" in terms of percent of the test compound in solution.

Row | Compound | LC50 CL [%]
46 | CC(C)C(=Nc1cncc(C(F)(F)F)c1)OCc1cccc(Oc2ccc(F)cc2)c1 [Compound 35] | 0.001
47 | CC(C)C(=Nc1ccc(Cl)nc1)NCc1cccc(Oc2ccccc2)c1 [Compound 23] | 0.1
48 | CC(C)C(=Nc1cncc(Br)c1)OCc1cccc(Oc2ccccc2)c1 [Compound 13] | 0.015
49 | CC(C)C(=Nc1cnc2ccccc2c1)OCc1cccc(Oc2ccccc2)c1 [Compound 17] | 0.05
50 | CC(C)C(=Nc1ccc2ncccc2c1)OCc1cccc(Oc2ccccc2)c1 [Compound 16] | 0.025
51 | CC(C)C(=Nc1cc(C(F)(F)F)ccn1)OCc1cccc(Oc2ccc(F)cc2)c1 [Compound 36] | 0.015
52 | Cc1nc2cc(N=C(OCc3cccc(Oc4ccccc4)c3)C(C)C)ccc2o1 [Compound 24] | 0.0075
53 | CC(C)C(=Nc1cc(C(F)(F)F)ccn1)OCc1cccc(Oc2ccccc2)c1 [Compound 34] | 0.018
54 | CC(C)C(=Nc1ccc(Cl)nc1)OCc1cccc(Oc2ccc(F)cc2)c1 [Compound 22] | 0.001
55 | CC(C)(Cl)C(=Nc1ccc(Br)nc1)OCc1cccc(Oc2ccccc2)c1 [Compound 12] | 0.02
56 | CC(C)C(=Nc1ccc2ncsc2c1)OCc1cccc(Oc2ccccc2)c1 [Compound 20] | 0.009
57 | CC(C)C(=Nc1ccc2ncoc2c1)OCc1cccc(Oc2ccccc2)c1 [Compound 18] | 0.009

test system: Diabrotica undecimpunctata undecimpunctata; test: Western spotted cucumber beetle larvae soil test; format: in vivo; conditions: Diabrotica eggs/larvae; ppm of the test compound in the soil
Procedure: as §1
Western Spotted Cucumber Beetle Larvae Diabrotica undecimpunctata undecimpunctata (Mannherheim)
Ten grams of moist potting soil was placed in a plastic cup. The test compound was dissolved in acetone. A 0.05 ml aliquot of the test sample, diluted to the desired concentration, was added to the soil. The cup was capped and the soil was mixed on a vortex mixer for approximately 15 seconds. An indentation was made on the surface of the soil and approximately 50 Diabrotica eggs were added. The eggs were covered with soil and maintained at room temperature (approximately 70° F. or 21° C.). Four days later a section of Romaine lettuce (Latuca sativa) leaf was placed in the treated cups. One week later the cups were examined for live larvae. Test concentrations ranged from 25 ppm downward. The LC-50 value is expressed below in Table II under the heading "Diabrotica" in terms of ppm of the test compound in the soil.

Row | Compound | LC50 Diabrotica [ppm]
58 | CC(C)C(=Nc1cncc(C(F)(F)F)c1)OCc1cccc(Oc2ccc(F)cc2)c1 [Compound 35] | > 25
59 | CC(C)C(=Nc1ccc(Cl)nc1)NCc1cccc(Oc2ccccc2)c1 [Compound 23] | > 25
60 | CC(C)C(=Nc1cnc2ccccc2c1)OCc1cccc(Oc2ccccc2)c1 [Compound 17] | > 25
61 | CC(C)C(=Nc1ccc2ncccc2c1)OCc1cccc(Oc2ccccc2)c1 [Compound 16] | > 25
62 | CC(C)C(=Nc1cc(C(F)(F)F)ccn1)OCc1cccc(Oc2ccc(F)cc2)c1 [Compound 36] | > 25
63 | Cc1nc2cc(N=C(OCc3cccc(Oc4ccccc4)c3)C(C)C)ccc2o1 [Compound 24] | > 25
64 | CC(C)C(=Nc1cc(C(F)(F)F)ccn1)OCc1cccc(Oc2ccccc2)c1 [Compound 34] | > 25
65 | CC(C)C(=Nc1ccc(Cl)nc1)OCc1cccc(Oc2ccc(F)cc2)c1 [Compound 22] | > 25
66 | CC(C)C(=Nc1ccc2ncoc2c1)OCc1cccc(Oc2ccccc2)c1 [Compound 18] | > 25
